These results are taken from patent publication US9108921B2, “Therapeutic compounds and compositions” (AGIOS PHARMACEUTICALS, INC, priority 2014, dated 2015).

Type in all cases: biochemical
In one test the target is PKR R532W (Homo sapiens, UniProt P30613, R532W). Description: PKR Mutant Assay, AC50 against PKR R532W. As to conditions: mutant PKR R532W enzyme. How it is done:
(§1) • PKR or PKR mutant enzyme solution was diluted in assay buffer. • 2 μL of test compound was added into wells first, and then 180 μL reaction mix was added. • Reactions mixture with test compound was assembled except for ADP, and plates were stored for 60 minutes at room temperature. • 20 uL ADP was added to start reaction at room temperature and reaction progress was measured as changes in absorbance at 340 nm wavelength at room temperature.
(§2) Test Compound Preparation: • Test compound stock was made at 100× concentration in 100% DMSO (10 mM) • 1 to 3 dilutions were made for 11 points (i.e. 50 μl of first concentration added to 100 μl 100% DMSO to yield 3.33 mM, 50 μl of this added to 100 μl DMSO to yield 1.11 mM, and so forth) • 1 to 100 dilution into assay (2 μl in 200 μl) yielded starting concentration of 100 μM, decreasing 3 fold for 11 points. Assay Buffer: 100 mM KCl, 50 mM Tris 7.5, 5 mM MgCl2, 1 mM DTT, 0.03% BSA Reaction Mixture: PKR mutant enzyme: 80-400 ng/well; ADP: 0.22-1.65 mM; PEP: 0.1-0.5 mM; NADH: 180 uM; LDH: 0.5 units (Sigma#59023); DTT: 1 mM; BSA: 0.03%.

For a further test, the target named is PKR R510Q (Homo sapiens, UniProt P30613, R510Q). Description: PKR Mutant Assay, AC50 against PKR R510Q. As to conditions: mutant PKR R510Q enzyme. As to the method:
as §1, §2

Another test concerns the target PKR WT (Homo sapiens, UniProt P30613). The experiment in a line: PKR WT enzymatic AC50 assay. As to conditions: wild type PKR. As to the method: as §1, §2

SMILES strings stand for the structures. Some results are limits rather than exact numbers.

Sequence of PKR R532W (P30613 whole entry R532W): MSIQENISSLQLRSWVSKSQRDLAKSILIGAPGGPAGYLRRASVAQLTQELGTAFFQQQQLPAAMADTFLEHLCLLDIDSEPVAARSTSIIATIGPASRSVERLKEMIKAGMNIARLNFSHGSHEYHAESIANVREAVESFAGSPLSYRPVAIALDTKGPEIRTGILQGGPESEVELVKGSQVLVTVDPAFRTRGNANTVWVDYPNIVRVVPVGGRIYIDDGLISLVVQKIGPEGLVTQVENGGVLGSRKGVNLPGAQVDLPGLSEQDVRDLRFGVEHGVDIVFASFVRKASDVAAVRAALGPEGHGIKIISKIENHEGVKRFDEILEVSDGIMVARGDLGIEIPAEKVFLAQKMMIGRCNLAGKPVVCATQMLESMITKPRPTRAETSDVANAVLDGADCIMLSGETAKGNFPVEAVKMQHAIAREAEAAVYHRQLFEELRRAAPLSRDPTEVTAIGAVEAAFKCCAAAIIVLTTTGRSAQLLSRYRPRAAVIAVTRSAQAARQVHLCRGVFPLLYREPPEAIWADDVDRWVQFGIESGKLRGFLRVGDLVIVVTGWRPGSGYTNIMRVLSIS
Sequence of PKR WT (P30613 whole entry): as the sequence (P30613 whole entry R532W) above, with W532R counted along it
Sequence of PKR R510Q (P30613 whole entry R510Q): as the sequence (P30613 whole entry R532W) above, with R510Q, W532R counted along it

Broadly, the AC50 is the concentration giving half of the maximal activity seen. A higher AC50 goes with activity only at high concentration. Turning to `O=C(c1ccc(NS(=O)(=O)c2ccc(F)c3cccnc23)cc1)N1CCC(O)(c2cccc(F)c2F)CC1` [Compound 227, N-(4-(4-(2,3-difluorophenyl)-4-hydroxypiperidine-1-carbonyl)phenyl)-5-fluoroquinoline-8-sulfonamide], the AC50 on PKR R532W, at PKR R510Q and on PKR WT was 0.101 to 1 µM in each case.

Turning to `O=C(c1ccc(NS(=O)(=O)c2cccc3nccnc23)cc1)N1CCC(O)(CCC(F)F)CC1` [Compound 230, N-(4-(4-(3,3-difluoropropyl)-4-hydroxypiperidine-1-carbonyl)phenyl)quinoxaline-5-sulfonamide], the concentration at half-maximal activity (AC50) on PKR R532W, at PKR R510Q and at PKR WT was 0.101 to 1 µM in each case.

Regarding `O=C(c1ccc(NS(=O)(=O)c2ccc(F)c3scnc23)cc1)N1CCC(O)(c2ccccc2Cl)CC1` [Compound 231], the AC50 on PKR R532W lay in the range of 0.101 to 1 µM; on PKR R510Q, 1.01 to 10 µM; at PKR WT, 0.101 to 1 µM.

Turning to `O=C(c1c(F)cc(NS(=O)(=O)c2cccc3cccnc23)cc1F)N1CCC(O)(c2ccccc2Cl)CC1` [Compound 232, N-(4-(4-(2-chlorophenyl)-4-hydroxypiperidine-1-carbonyl)-3,5-difluorophenyl)quinoline-8-sulfonamide], the AC50 on PKR R532W, on PKR R510Q and on PKR WT was 0.101 to 1 µM in each case.

In the case of `O=C(c1ccc(NS(=O)(=O)c2cccc3scnc23)cc1)N1CCC(O)(CCC(F)(F)F)CC1` [Compound 233, N-(4-(4-hydroxy-4-(3,3,3-trifluoropropyl)piperidine-1-carbonyl)phenyl)benzo[d]thiazole-4-sulfonamide], the half-maximal activity concentration (AC50) on PKR R532W, at PKR R510Q and on PKR WT was 0.101 to 1 µM each time.

As for `O=C(c1ccc(NS(=O)(=O)c2ccc(F)c3nccnc23)cc1)N1CCC(O)(c2ccccc2Cl)CC1` [Compound 234, N-(4-(4-(2-chlorophenyl)-4-hydroxypiperidine-1-carbonyl)phenyl)-8-fluoroquinoxaline-5-sulfonamide], the half-maximal activity concentration (AC50) at PKR R532W, on PKR R510Q and on PKR WT was 0.101 to 1 µM in each case.

For `O=C(c1ccc(NS(=O)(=O)c2cccc3scnc23)cc1)N1CCC(O)(CCC(F)F)CC1` [Compound 235, N-(4-(4-(3,3-difluoropropyl)-4-hydroxypiperidine-1-carbonyl)phenyl)benzo[d]thiazole-4-sulfonamide], the AC50 on PKR R532W, at PKR R510Q and at PKR WT was 0.101 to 1 µM throughout.

As for `O=C(c1ccc(NS(=O)(=O)c2cccc3cccnc23)cc1)N1CCC(CO)(c2ccccc2)CC1` [Compound 238], the figures for the AC50 at PKR R532W, at PKR R510Q and at PKR WT were 0.101 to 1 µM, 1.01 to 10 µM and 0.101 to 1 µM, respectively.

As for `CC(C)CC1(O)CCN(C(=O)c2ccc(NS(=O)(=O)c3ccc(F)c4scnc34)cc2)CC1` [Compound 240, 7-fluoro-N-(4-(4-hydroxy-4-isobutylpiperidine-1-carbonyl)phenyl)benzo[d]thiazole-4-sulfonamide], the half-maximal activity concentration (AC50) on PKR R532W, at PKR R510Q and on PKR WT was 0.101 to 1 µM in each case.

Consider `CC(C)CC1(O)CCN(C(=O)c2ccc(NS(=O)(=O)c3ccc(F)c4nccnc34)cc2)CC1` [Compound 242], for which the AC50 at PKR R532W, at PKR R510Q and at PKR WT was 0.101 to 1 µM throughout.

Take `O=C(c1ccc(NS(=O)(=O)c2cccc3csnc23)cc1)N1CCC(O)(c2ccccc2Cl)CC1` [Compound 244, N-(4-(4-(2-chlorophenyl)-4-hydroxypiperidine-1-carbonyl)phenyl)benzo[c]isothiazole-7-sulfonamide]: the half-maximal activity concentration (AC50) was 0.101 to 1 µM at PKR R532W, 1.01 to 10 µM on PKR R510Q and 0.101 to 1 µM at PKR WT.

`CCOCC1(O)CCN(C(=O)c2ccc(NS(=O)(=O)c3cccc4cccnc34)cc2)CC1` [Compound 246, N-(4-(4-(ethoxymethyl)-4-hydroxypiperidine-1-carbonyl)phenyl)quinoline-8-sulfonamide]: the concentration at half-maximal activity (AC50) on PKR R532W is less than 0.1 µM; at PKR R510Q, 1.01 to 10 µM; on PKR WT, 0.101 to 1 µM.

On to `O=C(c1ccc(NS(=O)(=O)c2cccc3cccnc23)cc1)N1CCC(O)(c2ccnc(F)c2)CC1` [Compound 247, N-[4-[4-(2-fluoropyridin-4-yl)-4-hydroxy-piperidine-1-carbonyl]phenyl]quinoline-8-sulfonamide], for which the AC50 on PKR R532W fell in the range of 0.101 to 1 µM; on PKR R510Q, 1.01 to 10 µM; on PKR WT, 0.101 to 1 µM.

For `O=C(c1ccc(NS(=O)(=O)c2cccc3nccnc23)c(F)c1)N1CCC(O)(c2ccccc2Cl)CC1` [Compound 251, N-(4-(4-(2-chlorophenyl)-4-hydroxypiperidine-1-carbonyl)-2-fluorophenyl)quinoxaline-5-sulfonamide], the half-maximal activity concentration (AC50) at PKR R532W, on PKR R510Q and at PKR WT was 0.101 to 1 µM in each case.

As for `O=C(c1ccc(NS(=O)(=O)c2cccc3cccnc23)cc1)N1CCC(O)(CCCO)CC1` [Compound 253, N-(4-(4-hydroxy-4-(3-hydroxypropyl)piperidine-1-carbonyl)phenyl)quinoline-8-sulfonamide], the concentration at half-maximal activity (AC50) is 0.101 to 1 µM at PKR R532W, 1.01 to 10 µM at PKR R510Q and 0.101 to 1 µM on PKR WT.

For the molecule `CC(C)CC1(O)CCN(C(=O)c2ccc(NS(=O)(=O)c3ccc(F)c(N)c3N)cc2)CC1` [Compound 254, 2,3-diamino-4-fluoro-N-(4-(4-hydroxy-4-isobutylpiperidine-1-carbonyl)phenyl)benzenesulfonamide], the half-maximal activity concentration (AC50) at PKR R532W, on PKR R510Q and at PKR WT was 0.101 to 1 µM throughout.

For `N#Cc1ccc(C2(O)CCN(C(=O)c3ccc(NS(=O)(=O)c4cccc5cccnc45)cc3)CC2)cc1` [Compound 255, N-[4-[4-(4-cyanophenyl)-4-hydroxy-piperidine-1-carbonyl]phenyl]quinoline-8-sulfonamide], the AC50 on PKR R532W is 0.101 to 1 µM; on PKR R510Q it was 1.01 to 10 µM; on PKR WT, 0.101 to 1 µM.

`Nc1c(F)ccc(S(=O)(=O)Nc2ccc(C(=O)N3CCC(O)(c4ccccc4Cl)CC3)cc2)c1N` [Compound 256, 2,3-diamino-N-(4-(4-(2-chlorophenyl)-4-hydroxypiperidine-1-carbonyl)phenyl)-4-fluorobenzenesulfonamide]: the AC50 lay within 0.101 to 1 µM at PKR R532W, 1.01 to 10 µM at PKR R510Q and 0.101 to 1 µM at PKR WT.

For the molecule `CC(C)CC1(O)CCN(C(=O)c2ccc(NS(=O)(=O)c3cccc4csnc34)cc2)CC1` [Compound 257], the figures for the half-maximal activity concentration (AC50) at PKR R532W, at PKR R510Q and on PKR WT were 0.101 to 1 µM, 1.01 to 10 µM and 0.101 to 1 µM, respectively.

Turning to `CC(C)CC1(O)CCN(C(=O)c2ccc(NS(=O)(=O)c3cccc4cccnc34)c(C(F)F)c2)CC1` [Compound 258], the half-maximal activity concentration (AC50) on PKR R532W, at PKR R510Q and at PKR WT was 0.101 to 1 µM throughout.

Regarding `O=C(c1ccc(NS(=O)(=O)c2cccc3nc(F)ccc23)cc1)N1CCC(O)(c2ccccc2Cl)CC1` [Compound 259, N-(4-(4-(2-chlorophenyl)-4-hydroxypiperidine-1-carbonyl)phenyl)-2-fluoroquinoline-5-sulfonamide], the AC50 fell in the range of 0.101 to 1 µM on PKR R532W, 1.01 to 10 µM at PKR R510Q and 0.101 to 1 µM on PKR WT.

On to `N#Cc1cc(NS(=O)(=O)c2cccc3cccnc23)ccc1C(=O)N1CCC(O)(c2ccccc2)CC1` [Compound 261, N-(3-cyano-4-(4-hydroxy-4-phenylpiperidine-1-carbonyl)phenyl)quinoline-8-sulfonamide], for which the AC50 at PKR R532W, on PKR R510Q and at PKR WT was 0.101 to 1 µM each time.

With `O=C(c1ccc(NS(=O)(=O)c2cccc3nccnc23)c(F)c1)N1CCC(O)(c2cccc(F)c2F)CC1` [Compound 262, N-(4-(4-(2,3-difluorophenyl)-4-hydroxypiperidine-1-carbonyl)-2-fluorophenyl)quinoxaline-5-sulfonamide], the AC50 on PKR R532W, at PKR R510Q and on PKR WT was 0.101 to 1 µM throughout.

Consider `O=C(c1ccc(NS(=O)(=O)c2cccc3cccnc23)c(OC(F)F)c1)N1CCC(O)(c2ccccc2Cl)CC1` [Compound 263, N-(4-(4-(2-chlorophenyl)-4-hydroxypiperidine-1-carbonyl)-2-(difluoromethoxy)phenyl)quinoline-8-sulfonamide], for which the concentration at half-maximal activity (AC50) at PKR R532W, on PKR R510Q and at PKR WT was 0.101 to 1 µM in each case.

For `Cc1cccc(C2(O)CCN(C(=O)c3ccc(NS(=O)(=O)c4cccc5cccnc45)cc3)CC2)n1` [Compound 265, N-[4-[4-hydroxy-4-(6-methylpyridin-2-yl)piperidine-1-carbonyl]phenyl]quinoline-8-sulfonamide], the concentration at half-maximal activity (AC50) lay within 0.101 to 1 µM on PKR R532W, 1.01 to 10 µM on PKR R510Q and 0.101 to 1 µM on PKR WT.

Regarding `N#Cc1ccccc1C1(O)CCN(C(=O)c2ccc(NS(=O)(=O)c3cccc4cccnc34)cc2)CC1` [Compound 266, N-(4-(4-(2-cyanophenyl)-4-hydroxypiperidine-1-carbonyl)phenyl)quinoline-8-sulfonamide], the AC50 at PKR R532W lay in the range of 0.101 to 1 µM; at PKR R510Q it was 1.01 to 10 µM; at PKR WT, 0.101 to 1 µM.
